{"source": "patent US20110039825A1", "about": "“LIGANDS OF ALPHA-ADRENOCEPTORS, DOPAMINE, HISTAMINE, IMIDAZOLINE AND SEROTONIN RECEPTORS AND THEIR USE” (Alla Chem, LLC, priority 2007, published 2011)", "key": {"[1]": {"molecular_target": "T1, recombinant human 5-HT6 receptor (Homo sapiens, UniProt P50406)", "T1 construct": "expressed in transfected cells; host or cells: HeLa", "T1 sequence (P50406 whole entry)": "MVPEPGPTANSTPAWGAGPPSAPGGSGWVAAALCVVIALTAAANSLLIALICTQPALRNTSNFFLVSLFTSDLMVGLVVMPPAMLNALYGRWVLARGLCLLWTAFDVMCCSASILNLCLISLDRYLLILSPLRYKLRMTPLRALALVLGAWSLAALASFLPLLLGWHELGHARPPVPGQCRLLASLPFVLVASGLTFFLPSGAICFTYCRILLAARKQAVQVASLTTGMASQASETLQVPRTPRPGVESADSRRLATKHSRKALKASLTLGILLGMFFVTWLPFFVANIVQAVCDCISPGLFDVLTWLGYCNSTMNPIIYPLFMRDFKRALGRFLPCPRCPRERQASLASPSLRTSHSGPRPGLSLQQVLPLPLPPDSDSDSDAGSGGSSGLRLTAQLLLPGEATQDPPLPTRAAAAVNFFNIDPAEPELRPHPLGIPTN", "test": "radioligand binding to serotonin receptor 5-HT6 ([3H] Lysergic acid diethylamide)", "conditions": "ligand concentration 1 μM; read-out: 5-HT6 % inhibition", "from_the_text": "Mol. Pharmacol. 43:320-327, 1993]. […] Methiothepin is used as positive control."}, "[2]": {"molecular_target": "T2, adrenergic receptor α1B (Rattus norvegicus, UniProt P15823)", "T2 construct": "membrane species from rat liver (rat of Wistar breed) are prepared; from tissue; host or cells: rat (Wistar) liver membranes", "T2 sequence (P15823 1-515)": "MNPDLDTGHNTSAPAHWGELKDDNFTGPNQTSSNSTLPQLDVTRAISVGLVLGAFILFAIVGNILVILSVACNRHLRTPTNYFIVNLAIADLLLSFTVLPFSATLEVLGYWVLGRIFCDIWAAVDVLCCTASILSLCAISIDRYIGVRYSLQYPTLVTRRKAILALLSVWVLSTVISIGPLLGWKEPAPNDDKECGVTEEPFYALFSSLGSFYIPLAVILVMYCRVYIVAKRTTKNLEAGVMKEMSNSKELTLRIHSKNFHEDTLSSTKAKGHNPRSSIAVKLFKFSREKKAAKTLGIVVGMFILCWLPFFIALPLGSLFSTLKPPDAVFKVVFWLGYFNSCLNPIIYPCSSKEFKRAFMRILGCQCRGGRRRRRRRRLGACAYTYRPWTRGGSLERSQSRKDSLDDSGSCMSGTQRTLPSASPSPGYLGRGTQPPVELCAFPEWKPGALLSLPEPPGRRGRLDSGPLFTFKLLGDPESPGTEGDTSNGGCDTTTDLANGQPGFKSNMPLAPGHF", "test": "radioligand binding to adrenergic receptor α1B ([3H] Prazosin)", "conditions": "10 μM ligand", "from_the_text": "Species heterogeneity of hepatic α1A-, α1B-, and α1C-subtypes. Biochem Biophys Res Commun. 186:760-7676 1992]. […] Prazosin is used as positive control."}, "[3]": {"molecular_target": "T3, human D4.2 receptor (Homo sapiens, UniProt P21917, DEL265-296)", "T3 sequence (P21917 with tags, fused parts or gaps DEL265-296)": "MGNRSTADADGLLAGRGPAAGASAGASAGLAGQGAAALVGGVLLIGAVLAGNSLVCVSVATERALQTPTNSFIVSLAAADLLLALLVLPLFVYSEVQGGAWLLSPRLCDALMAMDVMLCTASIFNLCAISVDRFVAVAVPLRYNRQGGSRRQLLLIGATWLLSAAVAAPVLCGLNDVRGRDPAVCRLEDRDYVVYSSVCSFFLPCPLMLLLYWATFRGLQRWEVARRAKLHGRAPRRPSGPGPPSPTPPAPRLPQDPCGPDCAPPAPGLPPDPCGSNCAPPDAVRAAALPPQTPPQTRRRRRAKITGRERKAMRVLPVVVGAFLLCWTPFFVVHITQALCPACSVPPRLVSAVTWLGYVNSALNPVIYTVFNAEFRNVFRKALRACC", "test": "radioligand binding to dopamine receptor D4.2 ([3H] Spiperone)", "conditions": "10 μM ligand", "quoted_text": "Screening of the disclosed compounds for potential ability to interact with dopamine receptor D4.2 is carried out by method of radioligand binding. […] From the cells transfected in this way membrane species are prepared by homogenization of these cells in glass homogenizer with the subsequent separation of plasmatic membranes from cell nuclei, mitochondrias and cell wreckages by differential centrifugation. […] After incubation samples are filtered in vacuo on glass-microfiber filters G/F (Millipor, USA), filters are washed three times with cold solution of medium and radioactivity is measured by scintillation counter MicroBeta 340 (Perkin Elmer, USA). Nonspecific binding which makes up 10% of the overall binding is determined by incubation of membrane species with radioligand in the presence of 10 μM of Haloperidol.\nSpiperone is used as positive control. Tested compounds' binding to the receptor is determined by their ability to displace radioligand and expressed in percent of displacement (% I). Values of % I are calculated according to the following equation:\nwherein: TA—is overall radioactivity in the presence of radioligand only, CA—is radioactivity in the presence of radioligand and tested compound and NA—is radioactivity in the presence of radioligand and Haloperidol (10 μM)."}, "[4]": {"molecular_target": "T4, recombinant human 5-HT1A (Homo sapiens, UniProt P08908)", "T4 construct": "expressed in transfected cells; host or cells: CHO", "T4 sequence (P08908 1-422)": "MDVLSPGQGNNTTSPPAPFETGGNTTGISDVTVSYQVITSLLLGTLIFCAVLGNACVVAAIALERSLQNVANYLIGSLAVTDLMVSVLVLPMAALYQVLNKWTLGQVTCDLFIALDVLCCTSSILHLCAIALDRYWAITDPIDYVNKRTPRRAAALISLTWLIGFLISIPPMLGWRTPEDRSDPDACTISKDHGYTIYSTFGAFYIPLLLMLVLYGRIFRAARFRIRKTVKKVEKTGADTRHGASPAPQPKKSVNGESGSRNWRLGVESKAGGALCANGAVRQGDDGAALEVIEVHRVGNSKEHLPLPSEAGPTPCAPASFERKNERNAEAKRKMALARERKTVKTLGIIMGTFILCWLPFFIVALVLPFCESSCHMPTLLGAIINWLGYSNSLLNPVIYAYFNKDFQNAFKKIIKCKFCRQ", "test": "radioligand binding to serotonin receptor 5-HT1A ([3H] 8-OH-DPAT)", "conditions": "ligand concentration 1 μM", "from_the_text": "J Pharmacol Exp Ther. 306(1): 301-309, 2003]. […] Metergoline is used as positive control."}, "[5]": {"molecular_target": "T5, human H2 receptor (Homo sapiens, UniProt P25021)", "T5 construct": "expressed in transfected cells; host or cells: CHO-K1", "T5 sequence (P25021 whole entry)": "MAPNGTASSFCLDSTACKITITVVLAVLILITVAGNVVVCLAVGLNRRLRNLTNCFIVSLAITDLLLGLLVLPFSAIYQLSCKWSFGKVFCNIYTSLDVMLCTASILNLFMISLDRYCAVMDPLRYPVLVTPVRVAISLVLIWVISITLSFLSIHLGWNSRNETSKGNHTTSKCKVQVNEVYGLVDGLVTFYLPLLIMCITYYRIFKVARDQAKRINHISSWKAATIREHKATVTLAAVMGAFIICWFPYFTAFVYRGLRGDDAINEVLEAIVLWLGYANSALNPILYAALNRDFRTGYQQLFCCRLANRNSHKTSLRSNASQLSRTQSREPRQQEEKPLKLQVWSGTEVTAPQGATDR", "test": "radioligand binding to histamine receptor H2 ([125I] Aminopotentidine)", "conditions": "10 μM ligand", "from_the_text": "Proc Natl Acad Sci USA. 87(5): 1658-1662, 1990]. […] Proc Natl Acad Sci USA. 87(5): 1658-1662, 1990]. […] Tiotidine is used as positive control."}, "[6]": {"molecular_target": "T6, human α1D receptor (Homo sapiens, UniProt P25100)", "T6 construct": "expressed in transfected cells; host or cells: HEK-293", "T6 sequence (P25100 1-572)": "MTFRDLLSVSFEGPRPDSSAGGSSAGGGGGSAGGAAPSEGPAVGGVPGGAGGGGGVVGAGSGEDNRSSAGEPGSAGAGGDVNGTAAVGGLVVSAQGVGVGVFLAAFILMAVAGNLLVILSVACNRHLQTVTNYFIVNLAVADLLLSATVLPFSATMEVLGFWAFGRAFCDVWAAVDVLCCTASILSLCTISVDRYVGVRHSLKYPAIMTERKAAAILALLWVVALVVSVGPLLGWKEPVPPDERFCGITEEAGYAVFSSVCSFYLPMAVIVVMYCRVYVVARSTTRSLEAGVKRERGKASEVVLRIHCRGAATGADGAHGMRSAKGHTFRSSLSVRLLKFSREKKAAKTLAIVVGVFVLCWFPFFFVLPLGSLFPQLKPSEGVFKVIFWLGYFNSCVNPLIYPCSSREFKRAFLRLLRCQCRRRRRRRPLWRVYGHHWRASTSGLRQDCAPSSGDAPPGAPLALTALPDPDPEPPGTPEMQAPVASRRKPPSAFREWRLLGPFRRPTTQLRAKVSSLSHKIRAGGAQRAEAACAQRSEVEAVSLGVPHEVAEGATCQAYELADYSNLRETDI", "test": "radioligand binding to adrenergic receptor α1D ([3H] Prazosin)", "conditions": "10 μM ligand", "from_the_text": "6-C. […] For this purpose sDNA of human α1D receptor is expressed in HEK-293 cells, as it was described in [T L Theroux, T A Esbenshade, R D Peavy and K P Minneman. Coupling efficiencies of human alpha 1-adrenergic receptor subtypes: titration of receptor density and responsiveness with inducible and repressible expression vectors. Mol. Pharmacol.; 50: 1376-1387, 1996]. […] Prazosin is used as positive control."}, "[7]": {"molecular_target": "T7, human D2S receptor (Homo sapiens, UniProt P14416)", "T7 construct": "expressed in transfected cells; host or cells: CHO", "T7 sequence (P14416 1-414 isoform P14416-2)": "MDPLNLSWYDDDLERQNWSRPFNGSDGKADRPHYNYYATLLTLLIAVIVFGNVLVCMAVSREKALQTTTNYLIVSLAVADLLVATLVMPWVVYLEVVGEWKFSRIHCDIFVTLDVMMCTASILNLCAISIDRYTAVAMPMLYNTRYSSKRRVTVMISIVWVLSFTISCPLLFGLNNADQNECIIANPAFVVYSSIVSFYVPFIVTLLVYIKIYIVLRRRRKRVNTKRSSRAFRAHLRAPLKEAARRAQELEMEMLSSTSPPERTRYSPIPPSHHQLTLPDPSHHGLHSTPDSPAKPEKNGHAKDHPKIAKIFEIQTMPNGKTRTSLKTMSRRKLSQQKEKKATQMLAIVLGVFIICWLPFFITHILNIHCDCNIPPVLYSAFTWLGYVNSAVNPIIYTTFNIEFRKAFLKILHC", "test": "radioligand binding to dopamine receptor D2S ([3H] Spiperone)", "conditions": "10 μM ligand", "from_the_text": "7-C. […] For this purpose sDNA of human D2S receptor is expressed in CHO cells, as described in [Hayes G, Biden T J, Selbie L A and Shine J, Structural subtypes of the dopamine D2 receptor are functionally distinct. […] Mol. Endocrinol. […] Mol. Endocrinol. […] Spiperone is used as positive control."}, "[8]": {"molecular_target": "T8, human D3 receptor (Homo sapiens, UniProt P35462)", "T8 construct": "expressed in transfected cells; host or cells: CHO", "T8 sequence (P35462 whole entry)": "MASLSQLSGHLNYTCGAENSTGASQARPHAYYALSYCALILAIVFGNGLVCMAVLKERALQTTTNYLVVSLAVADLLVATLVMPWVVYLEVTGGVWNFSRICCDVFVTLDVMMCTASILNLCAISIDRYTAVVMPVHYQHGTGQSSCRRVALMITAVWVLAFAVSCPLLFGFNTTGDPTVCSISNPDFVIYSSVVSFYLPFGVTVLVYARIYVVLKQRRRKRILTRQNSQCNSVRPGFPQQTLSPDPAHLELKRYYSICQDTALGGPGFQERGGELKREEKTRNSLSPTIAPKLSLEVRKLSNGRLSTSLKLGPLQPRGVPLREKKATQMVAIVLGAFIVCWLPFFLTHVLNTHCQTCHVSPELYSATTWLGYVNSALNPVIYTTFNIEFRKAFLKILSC", "test": "radioligand binding to dopamine receptor D3 ([3H] Spiperone)", "conditions": "10 μM ligand", "from_the_text": "For this purpose sDNA of human D3 receptor is expressed in CHO cells, as it was described in [Sokoloff P, Giros B, Martres M-P, Bouthenet M-L and Schwartz J-C. Molecular cloning and characterization of novel dopamine receptor (D3) as target for neuroleptics. Nature. […] Molecular cloning and characterization of novel dopamine receptor (D3) as target for neuroleptics. Nature. […] Spiperone is used as positive control."}, "[9]": {"molecular_target": "T9, human H1 receptor (Homo sapiens, UniProt P35367)", "T9 construct": "expressed in transfected cells; host or cells: CHO-K1", "T9 sequence (P35367 whole entry)": "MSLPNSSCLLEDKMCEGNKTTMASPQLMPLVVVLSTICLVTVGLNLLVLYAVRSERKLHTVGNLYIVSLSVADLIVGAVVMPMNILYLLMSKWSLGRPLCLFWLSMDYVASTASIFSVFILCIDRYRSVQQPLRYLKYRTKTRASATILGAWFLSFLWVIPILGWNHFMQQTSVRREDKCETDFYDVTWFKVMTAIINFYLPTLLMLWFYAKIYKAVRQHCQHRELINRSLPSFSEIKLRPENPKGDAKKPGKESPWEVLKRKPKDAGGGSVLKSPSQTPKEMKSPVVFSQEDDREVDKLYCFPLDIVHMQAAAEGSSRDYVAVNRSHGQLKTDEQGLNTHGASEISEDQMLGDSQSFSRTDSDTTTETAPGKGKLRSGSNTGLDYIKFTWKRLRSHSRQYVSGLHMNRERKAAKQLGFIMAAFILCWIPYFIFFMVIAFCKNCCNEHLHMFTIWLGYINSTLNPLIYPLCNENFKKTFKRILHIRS", "test": "radioligand binding to histamine receptor H1 ([3H] Pyrilamine)", "conditions": "10 μM ligand", "from_the_text": "Biochem Biophys Res Comm. 197(3): 1601-1608, 1993]. […] Biochem Biophys Res Comm. 197(3): 1601-1608, 1993].\nPyrilamine is used as positive control."}, "[10]": {"test_system": "mice", "test": "Mice Training in Morris Water Maze (Scopolamine)", "format": "in vivo", "conditions": "unitary introduction of active ingredient", "method": "Mice Training in Morris Water Maze. A round pool which was filled with water at 20-22° C. was used. A round ceramic platform of 14 cm height was placed in the pool. Animals's behavior was registered with automated computer videosystem in combination with software package of movement analysis Any-maze (Stoelting Co., US). Before testing mice suitable for training were selected. That was done by placing the platform 1 cm above the water level and putting an animal on the platform for 20 seconds. Then the mouse was sunk into the water on the opposite side of the pool, allowed to find the platform and climbed it within 60 seconds, where it was left for additional 20 seconds. After that the mouse was repeatedly immersed into water on the opposite side of the pool and allowed to look for platform. If it failed in finding the platform within 60 seconds the experimentator helped it to find the platform and climb it. If the mice could not find the platform itself in two consecutive attempts it was excluded from experiment.\nDuring the next two days the platform was placed 0.5 centimeter lower the water level. Every day the mice were given four attempts for finding the platform within 60 seconds. The time interval between the attempts was 20 seconds, during which the mice stayed on the platform. Every day before the first attempt mouse was placed on the platform for 20 seconds. The time needed for finding and climbing the platform was registered. The animals were sunk in water in 3 different places on the side of the pool opposite to platform. On each day of two-day testing 35-40 minutes before the beginning of training the mice were injected intraintestinally with physiological solution, Scopolamine or Scopolamine in combination with investigated compound. At least 8 animals were used in each group.\nOn the third day the platform was removed and each animal was placed one time in the pool for a period of 60 seconds. The time each mouse spent in the area where the platform had been located during the previous days was registered. This time interval was regarded as a measure of effectiveness of training fulfilled during the previous two days. The testing was carried out during the day time in isolated laboratory using “white noise” at level of about 70 decibel above the human hearing threshold."}, "[11]": {"test_system": "male mice of BALB/c line", "test": "Passive Avoidance of mice in the Shuttle Chamber, memory disturbed by Scopolamine", "format": "in vivo", "conditions": "Scopolamine 0.3 mg/kg", "method": "A shuttle chamber (Ugo Basile, Italy) consisted of two sections was used. […] The sections were connected through a hole which could be overlapped by a vertical door. The floor was made of transverse metal bars on which DC current impulses could be fed. Experiments were carried out in aged male mice of BALB/c line weighing 20-24 grams.\nEach group consisted of at least 8 animals. Animal was placed in light section, and latent period of the first entry into dark chamber was registered. Then the vertical door was closed and the animal was punished by 0.6 mA DC current for 3 seconds. After that it was taken back to its homecage. In 22-24 hours the same animal was placed again in light section of the shuttle chamber and latent period of its first entry into dark section, the total time of its stay in light section, and the number of entries into dark section, were registered. Each monitoring lasted for 5 minutes.\nTesting was carried out during the day time in isolated laboratory using white noise at level of about 70 decibel above human hearing threshold.\nScopolamine causes the disturbance of training (memory loss) that results in […]."}}}
{"smiles": "Cc1ccc2c(c1)[C@H]1CN(C)CCC[C@@H]1N2CCc1ccc(C)nc1", "note": "(relative stereo) [1.6.2(11)]", "values": [{"measurement": "inhibition at 1 µM", "setting": "[1]", "result": 93, "unit": "%"}, {"measurement": "α-Adrenoceptor α1B, % inhibition", "setting": "[2]", "result": 94, "unit": "%"}, {"measurement": "Dopamine receptor D4.2, % inhibition", "setting": "[3]", "result": 6, "unit": "%"}, {"measurement": "inhibition at 1 µM", "setting": "[4]", "result": 55, "unit": "%"}, {"measurement": "Histamine receptor H2, % inhibition", "setting": "[5]", "result": 76, "unit": "%"}, {"measurement": "α-Adrenoceptor α1D, % inhibition", "setting": "[6]", "result": 90, "unit": "%"}, {"measurement": "Dopamine receptor D2S, % inhibition", "setting": "[7]", "result": 31, "unit": "%"}, {"measurement": "Dopamine receptor D3, % inhibition", "setting": "[8]", "result": 36, "unit": "%"}, {"measurement": "Histamine receptor H1, % inhibition", "setting": "[9]", "result": 100, "unit": "%"}]}
{"smiles": "Cc1ccc2c(c1)c1c(n2CCc2ccccc2)CCN(C)C1", "note": "[1.1.2(1-2), 2,8-dimethyl-5-phenethyl-1,2,3,4-tetrahydro-1H-pyrido[4,3-b]indole]", "values": [{"measurement": "memory disorders caused by Scopolamine in Morris water maze", "setting": "[10]", "result": "decreasing memory disorders coused by Scopalomine"}, {"measurement": "enhancement of memory disturbed by Scopolamine (passive avoidance)", "setting": "[11]", "result": "improve memory"}]}
